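Tested at 5 concentrations; 48 h exposure; 96-well plates; endpoints linearly interpolated, else capped at highest concentration. At the GI50, growth is halved.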 Active and inactive are the calls of the source. Rule as the data show it: active = GI50 up to about 1.1 µM and inactive = higher.
Legend:
Test in all cases: DTP human tumour cell line panel, 48 h
786-0 = test system: 786-0
A498 = test system: A498
A549 = test system: A549
ACHN = test system: ACHN
BT-549 = test system: BT-549
CAKI-1 = test system: CAKI-1
CCRF-CEM = test system: CCRF-CEM
COLO 205 = test system: COLO 205
DU-145 = test system: DU-145
EKVX = test system: EKVX
HCC 2998 = test system: HCC 2998
HCT-116 = test system: HCT-116
HCT-15 = test system: HCT-15
HL-60 = test system: HL-60
HOP-62 = test system: HOP-62
HOP-92 = test system: HOP-92
HT-29 = test system: HT-29
Hs-578T = test system: Hs-578T
IGROV-1 = test system: IGROV-1
K562 = test system: K562
KM12 = test system: KM12
LOX IMVI = test system: LOX IMVI
M14 = test system: M14
MCF7 = test system: MCF7
MDA-MB-231 = test system: MDA-MB-231
MDA-MB-435 = test system: MDA-MB-435
MDA-N = test system: MDA-N
MOLT-4 = test system: MOLT-4
NCI-H226 = test system: NCI-H226
NCI-H23 = test system: NCI-H23
NCI-H460 = test system: NCI-H460
NCI-H522 = test system: NCI-H522
NCI/ADR-RES = test system: NCI/ADR-RES
OVCAR-3 = test system: OVCAR-3
OVCAR-4 = test system: OVCAR-4
OVCAR-5 = test system: OVCAR-5
OVCAR-8 = test system: OVCAR-8
PC-3 = test system: PC-3
RPMI-8226 = test system: RPMI-8226
RXF 393 = test system: RXF 393
SF-268 = test system: SF-268
SF-295 = test system: SF-295
SF-539 = test system: SF-539
SK-MEL-28 = test system: SK-MEL-28
SK-MEL-2 = test system: SK-MEL-2
SK-MEL-5 = test system: SK-MEL-5
SK-OV-3 = test system: SK-OV-3
SN12C = test system: SN12C
SNB-19 = test system: SNB-19
SNB-75 = test system: SNB-75
SW-620 = test system: SW-620
T47D = test system: T47D
TK-10 = test system: TK-10
U-251 = test system: U-251
UACC-257 = test system: UACC-257
UACC-62 = test system: UACC-62
UO-31 = test system: UO-31
SR = test system: SR
Malme-3M = test system: Malme-3M

## CCOC(=O)CNC(=O)C(CCC(=O)N(C)O)NC(=O)CCC(N)C(=O)O (stereo not drawn)
786-0
  GI50: > 100 µM (inactive)
A498
  GI50: > 100 µM (inactive)
A549
  GI50: > 100 µM (inactive)
ACHN
  GI50: > 100 µM (inactive)
BT-549
  GI50: > 100 µM (inactive)
CAKI-1
  GI50: > 100 µM (inactive)
CCRF-CEM
  GI50: > 100 µM (inactive)
COLO 205
  GI50: > 100 µM (inactive)
DU-145
  GI50: > 100 µM (inactive)
EKVX
  GI50: > 100 µM (inactive)
HCC 2998
  GI50: > 100 µM (inactive)
HCT-116
  GI50: > 100 µM (inactive)
HCT-15
  GI50: > 100 µM
HL-60
  GI50: > 100 µM (inactive)
HOP-62
  GI50: > 100 µM (inactive)
HOP-92
  GI50: > 100 µM (inactive)
HT-29
  GI50: > 100 µM (inactive)
Hs-578T
  GI50: > 100 µM (inactive)
IGROV-1
  GI50: > 100 µM (inactive)
K562
  GI50: > 100 µM (inactive)
KM12
  GI50: > 100 µM (inactive)
LOX IMVI
  GI50: > 100 µM (inactive)
M14
  GI50: > 100 µM (inactive)
MCF7
  GI50: > 100 µM (inactive)
MDA-MB-231
  GI50: > 100 µM (inactive)
MDA-MB-435
  GI50: > 100 µM (inactive)
MDA-N
  GI50: > 100 µM (inactive)
MOLT-4
  GI50: > 100 µM (inactive)
NCI-H226
  GI50: > 100 µM (inactive)
NCI-H23
  GI50: > 100 µM (inactive)
NCI-H460
  GI50: > 100 µM (inactive)
NCI-H522
  GI50: > 100 µM (inactive)
NCI/ADR-RES
  GI50: > 100 µM (inactive)
OVCAR-3
  GI50: > 100 µM (inactive)
OVCAR-4
  GI50: > 100 µM (inactive)
OVCAR-5
  GI50: > 100 µM (inactive)
OVCAR-8
  GI50: > 100 µM (inactive)
PC-3
  GI50: > 100 µM (inactive)
RPMI-8226
  GI50: > 100 µM (inactive)
RXF 393
  GI50: > 100 µM (inactive)
SF-268
  GI50: > 100 µM (inactive)
SF-295
  GI50: > 100 µM (inactive)
SF-539
  GI50: > 100 µM (inactive)
SK-MEL-28
  GI50: > 100 µM (inactive)
SK-MEL-2
  GI50: > 100 µM (inactive)
SK-MEL-5
  GI50: > 100 µM (inactive)
SK-OV-3
  GI50: > 100 µM (inactive)
SN12C
  GI50: > 100 µM (inactive)
SNB-19
  GI50: > 100 µM (inactive)
SNB-75
  GI50: > 100 µM (inactive)
SW-620
  GI50: > 100 µM (inactive)
T47D
  GI50: > 100 µM (inactive)
TK-10
  GI50: > 100 µM (inactive)
U-251
  GI50: > 100 µM (inactive)
UACC-257
  GI50: > 100 µM (inactive)
UACC-62
  GI50: > 100 µM (inactive)
UO-31
  GI50: > 100 µM (inactive)

## c1ccc(CSP234N5CCN2CCN3CCN4CC5)c(CSP234N5CCN2CCN3CCN4CC5)c1
786-0
  GI50: > 100 µM (inactive)
A549
  GI50: > 100 µM (inactive)
ACHN
  GI50: > 100 µM (inactive)
BT-549
  GI50: > 100 µM (inactive)
CAKI-1
  GI50: > 100 µM (inactive)
CCRF-CEM
  GI50: 45.4 µM (inactive)
COLO 205
  GI50: 13.6 µM (inactive)
DU-145
  GI50: > 100 µM (inactive)
EKVX
  GI50: > 100 µM (inactive)
HCC 2998
  GI50: > 100 µM (inactive)
HCT-116
  GI50: > 100 µM (inactive)
HCT-15
  GI50: > 100 µM
HL-60
  GI50: 3.65 µM (inactive)
HOP-62
  GI50: > 100 µM (inactive)
HOP-92
  GI50: 46.2 µM (inactive)
HT-29
  GI50: 37.2 µM (inactive)
Hs-578T
  GI50: 80.2 µM (inactive)
IGROV-1
  GI50: > 100 µM (inactive)
KM12
  GI50: > 100 µM (inactive)
LOX IMVI
  GI50: > 100 µM (inactive)
M14
  GI50: 31.5 µM (inactive)
MCF7
  GI50: > 100 µM (inactive)
MDA-MB-231
  GI50: > 100 µM (inactive)
MDA-MB-435
  GI50: > 100 µM (inactive)
MDA-N
  GI50: 13.4 µM (inactive)
MOLT-4
  GI50: 65.2 µM (inactive)
NCI-H23
  GI50: > 100 µM (inactive)
NCI-H460
  GI50: > 100 µM (inactive)
NCI-H522
  GI50: 46.6 µM (inactive)
NCI/ADR-RES
  GI50: > 100 µM (inactive)
OVCAR-3
  GI50: > 100 µM (inactive)
OVCAR-4
  GI50: > 100 µM (inactive)
OVCAR-5
  GI50: > 100 µM (inactive)
OVCAR-8
  GI50: > 100 µM (inactive)
PC-3
  GI50: > 100 µM (inactive)
RPMI-8226
  GI50: 27.7 µM (inactive)
SF-268
  GI50: > 100 µM (inactive)
SF-295
  GI50: > 100 µM (inactive)
SF-539
  GI50: 41.7 µM (inactive)
SK-MEL-28
  GI50: > 100 µM (inactive)
SK-MEL-2
  GI50: > 100 µM (inactive)
SK-MEL-5
  GI50: 55 µM (inactive)
SN12C
  GI50: 14.4 µM (inactive)
SNB-19
  GI50: > 100 µM (inactive)
SNB-75
  GI50: 28.3 µM (inactive)
SR
  GI50: 30.8 µM (inactive)
SW-620
  GI50: > 100 µM (inactive)
T47D
  GI50: > 100 µM (inactive)
TK-10
  GI50: > 100 µM (inactive)
U-251
  GI50: > 100 µM (inactive)
UACC-257
  GI50: > 100 µM (inactive)
UACC-62
  GI50: > 100 µM (inactive)
UO-31
  GI50: 81.1 µM (inactive)

## CC(NC(=O)Cc1ccccc1)NC(=O)C(C)C(=O)NCc1ccccc1 (stereo not drawn)
786-0
  GI50: > 100 µM (inactive)
A549
  GI50: > 100 µM (inactive)
ACHN
  GI50: 52.2 µM (inactive)
BT-549
  GI50: 27.9 µM (inactive)
CAKI-1
  GI50: 81.7 µM (inactive)
CCRF-CEM
  GI50: > 100 µM (inactive)
COLO 205
  GI50: > 100 µM (inactive)
DU-145
  GI50: > 100 µM (inactive)
EKVX
  GI50: > 100 µM (inactive)
HCT-116
  GI50: > 100 µM (inactive)
HCT-15
  GI50: > 100 µM
HL-60
  GI50: > 100 µM (inactive)
HOP-92
  GI50: 31.4 µM (inactive)
HT-29
  GI50: > 100 µM (inactive)
Hs-578T
  GI50: 30.3 µM (inactive)
IGROV-1
  GI50: 50.9 µM (inactive)
K562
  GI50: > 100 µM (inactive)
KM12
  GI50: > 100 µM (inactive)
M14
  GI50: > 100 µM (inactive)
MCF7
  GI50: > 100 µM (inactive)
MDA-MB-231
  GI50: 46.8 µM (inactive)
MDA-MB-435
  GI50: > 100 µM (inactive)
MDA-N
  GI50: > 100 µM (inactive)
MOLT-4
  GI50: > 100 µM (inactive)
Malme-3M
  GI50: > 100 µM (inactive)
NCI-H226
  GI50: 21.7 µM (inactive)
NCI-H23
  GI50: > 100 µM (inactive)
NCI-H460
  GI50: > 100 µM (inactive)
NCI-H522
  GI50: > 100 µM (inactive)
NCI/ADR-RES
  GI50: > 100 µM (inactive)
OVCAR-4
  GI50: > 100 µM (inactive)
OVCAR-5
  GI50: > 100 µM (inactive)
OVCAR-8
  GI50: 32.4 µM (inactive)
PC-3
  GI50: > 100 µM (inactive)
RPMI-8226
  GI50: > 100 µM (inactive)
RXF 393
  GI50: 42.6 µM (inactive)
SF-268
  GI50: 33.3 µM (inactive)
SF-295
  GI50: 21.7 µM (inactive)
SF-539
  GI50: 82.4 µM (inactive)
SK-MEL-2
  GI50: 75.3 µM (inactive)
SK-MEL-5
  GI50: > 100 µM (inactive)
SK-OV-3
  GI50: 53.6 µM (inactive)
SN12C
  GI50: 53.5 µM (inactive)
SNB-19
  GI50: 23.7 µM (inactive)
SNB-75
  GI50: 38.8 µM (inactive)
SR
  GI50: > 100 µM (inactive)
SW-620
  GI50: > 100 µM (inactive)
T47D
  GI50: > 100 µM (inactive)
TK-10
  GI50: 45.4 µM (inactive)
U-251
  GI50: 50.6 µM (inactive)
UACC-257
  GI50: > 100 µM (inactive)
UACC-62
  GI50: > 100 µM (inactive)
UO-31
  GI50: 42.6 µM (inactive)

Reference: ChEMBL document CHEMBL1201862, “PubChem BioAssay data set” (2004)
